Data from patent US12636368B2, “Ionizable lipids for nucleic acid delivery” (Global Life Sciences Solutions Canada ULC, priority 2019, dated 2026).
Like-named read-outs stand apart in the source and are kept apart here.

Key:
[1] = TNS assay, surface pKa of lipid nanoparticles; assay type: physicochemical
Protocol: In embodiments of the invention, the experimental pKa of formulated lipid nanoparticles comprising lipids in Table 1 is calculated using the 2-(p-toluidinyl)naphthalene-6-sulfonic acid (TNS) assay. The procedure for the TNS assay is described in Example 25.
The pKa of each cationic lipid was determined in lipid nanoparticles using an assay based on fluorescence of 6-(p-Toluidino)-2-naphthalenesulfonic acid sodium salt (TNS, Sigma Aldrich), which is a fluorescent probe for the conformational state of proteins5. Empty lipid nanoparticles comprising ionizable lipid in LM02 composition in distilled water at a concentration of 3.125 mM total lipid are formulated using NanoAssemblr® Spark™, and were then was characterized for LNP quality on the Zetasizer™ using a 30× dilution with 1×PBS in the low volume cuvette. Lipid nanoparticles were further diluted 4× using distilled water to 0.781 mM total lipid. TNS was prepared as a 25 μM stock solution in distilled water. Then 6.4 μL of diluted LNP samples of 0.781 mM total lipid were mixed with 10 μL of diluted TNS to a final volume of 250 μL with buffer containing 10 mM HEPES, 10 mM MES, 10 mM NH4OAc and 130 mM NaCl where the pH ranged from 3 to 9 in 0.5 pH increments.
Samples were mixed thoroughly, and the fluorescence intensity was measured at room temperature in a BioTek™ Synergy™ H1 Hybrid Multi-Mode Monochromator™ Fluorescence Microplate Reader using excitation and emission wavelengths of 321 nm and 445 nm respectively. A sigmoidal best fit analysis was applied to the fluorescence data using GraphPad Prism™ software, and the pKa was measured as the pH at half-maximal fluorescence intensity.

[2] = test system: isolated primary human T cells; test: GFP mRNA-LNP transfection of primary human T cells, flow cytometry; assay type: cell-based; settings: for GFP Protein expression score: Human T cell: Table 8, star score, legend not given
Protocol: Reagents were from Stemcell Technologies unless otherwise stated. Tcells were isolated from a single donor. At 48 h following lipid particle mRNA exposure, the treated T cells were harvested by transferring the cell suspensions to pre-labeled 1.5 mL tubes and centrifuged 300×g at 4 degrees C. for 10 minutes. Supernatant was removed and the pellet resuspended in PBS. An amount of 0.5 ul of BD Horizon™ Fixable Viability Stain 575V™ (BD Biosciences), was added, and the mixture incubated in the dark for 10 minutes at RT. This stain binds to amines.
The cells were centrifuged again as before, then washed twice with 1 mL of stain buffer (BSA, BD Pharminigen), and the washed pellet was diluted in 100 μl BSA. The following antibodies were added to each tube of treated cells in 2 μl volumes: CD25, CD8, CD4, (PerCP-Cy™ 5.5 Mouse Anti Human CD25, BV786 Mouse Anti-Human CD8 Clone RPA-T8, APC-Cy™7 Mouse Anti-Human CD4 Clone SK3 (all from BD Pharmingen) with the exception of the controls: in the eGFP only sample and viability control, no antibody was added. In the single stain compensation tubes, only one antibody per tube was added.
The tubes were incubated at 4 degrees C. for 30 min, whereupon […] of stain buffer was added, and the cells were centrifuged again. Cells were washed once with 1 mL of stain buffer and spun down again as in step one. Cell pellets were resuspended in 1 mL of stain buffer and added to pre-labeled flow tubes with cell strainer caps (Corning Falcon). […]
GFP MFI was measured by flow cytometry 48 hours after LNP addition. T cells were isolated from whole blood using a negative isolation procedure (EasySep™ Human T Cell Isolation Kit, Stemcell Technologies). T cells were dosed with mRNA-LNPs 3 days after activation with 500 ng of encapsulated mRNA per 125,000 cells. The LNP were CT10 compositions with an N/P of 8. Transfection efficiency (upper graph) and MFI (lower graph) were measured by flow cytometry 48 h after LNP addition.

[3] = LNP size and PDI by dynamic light scattering; assay type: physicochemical
Protocol: After the lipid particles were made as described supra, particle size (hydrodynamic diameter of the particles) was determined by Dynamic Light Scattering (DLS) using a ZetaSizer™ Nano ZS™ (Malvern Instruments, UK). He/Ne laser tuned to 633 nm wavelength was used as the light source. Data were measured from the scattered intensity data conducted in backscattering detection mode (measurement angle=173). Measurements were an average of 10 runs of two cycles each per sample. Z-Average size was reported as the particle size, and is defined as the harmonic intensity averaged particle diameter.
(§1) Physical characteristics of lipid nanoparticle (LNP) compositions comprising compounds according to Formula (I) and that were manufactured on the NanoAssemblr® Spark and Benchtop, are shown in Tables 6 and 7 below. Size, size variation of the LNP (PDI), encapsulation efficiency, and pKa are shown. The physical characteristics of these LNP are important from a standpoint of stability, biodistribution, and cell membrane crossing. There was good encapsulation in all the formulations, with polydispersity (PDI) under 0.3. Size and PDI were measured using dynamic light scattering techniques, and nucleic acid encapsulation efficiency was calculated from a modified Quant-iT RiboGreen RNA assay.

[4] = Nucleic acid encapsulation efficiency by RiboGreen assay; assay type: physicochemical
Protocol: Messenger RNA or plasmid NAT was diluted using sodium acetate buffer to the required concentration. Lipid nucleic acid particle samples were then prepared by running both fluids using the NanoAssemblr® Spark instrument. […] The lipid nucleic acid particles made in the instrument were immediately diluted down with 48 μL Ca and Mg free 1×PBS at pH 7.4 in the aqueous output well. These nucleic acid lipid particles were immediately collected into microcentrifuge tubes containing 96 μL of Ca and Mg free 1×PBS at pH 7.4. Encapsulation efficiency was measured by a modified Ribogreen™ assay (Quanti-iT RiboGreen™ RNA assay kit, Fisher). Observed particle attributes were generally sized from 60-200 nm for mRNA, depending on lipid composition and method of production.
as §1

[5] = Table 1, formulated lipid nanoparticles, TNS assay, read-out: Exp. pKa
[6] = Table 7, EPO mRNA LNPs, LM02, N/P 6
[7] = Table 6, GFP-encoded LNPs, CT10, N/P 8

SMILES	pKa [1, 5]	pKa ([1]; Table 8, read-out: Exp.pKa)	Diameter (Z. ave, nm) [3, 6] [nm]	Polydispersity Index (PDI) [3, 6]	Encapsulation Efficiency (%) [4, 6] [%]	further results
CCCCC/C=C\C/C=C\CCCCCCCC(=O)O[C@@H]1[C@@H](OC(=O)CCCCCCC/C=C\C/C=C\CCCCC)CO[C@@H]1COC(=O)CCCCN(C)C (racemic) [PNI 122]	7.45	7.45	102.4	0.15	99.3	GFP Protein expression score: Human T cell [2]: Toxic
CCCCC/C=C\C/C=C\CCCCCCCC(=O)O[C@@H]1[C@@H](OC(=O)CCCCCCC/C=C\C/C=C\CCCCC)CO[C@@H]1COC(=O)CCN(C)C (racemic) [PNI 321]	5.62	5.62	60.0	0.09	94.9	Diameter (Z. ave, nm) [3, 7]: 68.6 nm; Polydispersity Index (PDI) [3, 7]: 0.07; Encapsulation Efficiency (%) [4, 7]: 92.4%
CCCCC/C=C\C/C=C\CCCCCCCC(=O)O[C@@H]1[C@@H](OC(=O)CCCCCCC/C=C\C/C=C\CCCCC)CO[C@@H]1COC(=O)Cc1cn(C)cn1 (racemic) [PNI 336]	4.57	4.57	64.3	0.06	89.8	Diameter (Z. ave, nm) [3, 7]: 79.6 nm; Polydispersity Index (PDI) [3, 7]: 0.07; Encapsulation Efficiency (%) [4, 7]: 86.6%
CCCCCCCCC(CCCCCC)C(=O)O[C@@H]1[C@@H](OC(=O)C(CCCCCC)CCCCCCCC)CO[C@@H]1COC(=O)CCN(C)C (mixture of isomers) [PNI 535]	4.99	4.99	54.2	0.11	82.2	GFP Protein expression score: Human T cell [2]: Not Active; Diameter (Z. ave, nm) [3, 7]: 133.1 nm; Polydispersity Index (PDI) [3, 7]: 0.07; Encapsulation Efficiency (%) [4, 7]: 91.7%
CCCCC/C=C\C/C=C\CCCCCCCC(=O)O[C@H]1COC(COC(=O)CN2CCN(C)CC2)[C@@H]1OC(=O)CCCCCCC/C=C\C/C=C\CCCCC (mixture of isomers) [PNI 574]	6.66	–	–	–	–	–
CCCCC/C=C\C/C=C\CCCCCCCC(=O)O[C@H]1COC(COC(=O)C23CCN(CC2)CC3)[C@@H]1OC(=O)CCCCCCC/C=C\C/C=C\CCCCC (stereo in doubt) [PNI 573]	7.79	–	–	–	–	–
CCCCC/C=C\C/C=C\CCCCCCCC(=O)O[C@H]1COC(COC(=O)C2CCCN(C)C2)[C@@H]1OC(=O)CCCCCCC/C=C\C/C=C\CCCCC (stereo in doubt) [PNI 575]	5.51	–	–	–	–	–
CCCCCCCCC(CCCCCC)C(=O)O[C@@H]1[C@@H](OC(=O)C(CCCCCC)CCCCCCCC)CO[C@@H]1COC(=O)C1(C)CCN(C)CC1 (stereo in doubt) [PNI 579]	5.32	–	–	–	–	–
CCCCCCCCC(CCCCCC)C(=O)O[C@@H]1[C@@H](OC(=O)C(CCCCCC)CCCCCCCC)CO[C@@H]1COC(=O)CCCN(C)C (stereo in doubt) [PNI 580]	5.69	–	–	–	–	–
CCCCCC/C=C\COC(=O)CCCCCCC(=O)O[C@@H]1[C@@H](OC(=O)CCCCCCC(=O)OC/C=C\CCCCCC)CO[C@@H]1COC(=O)CCN(C)C [PNI 532]	5.97	5.97	144.3	0.15	37.3	–
CC/C=C\CC1C(CC(=O)OCCC(CCCCCCCC)OC(=O)C(CCCCCC)CCCCCCCC)CCC1OC(=O)C1(C)CCN(C)CC1 (stereo not shown) [PNI-565]	–	–	–	–	–	amount of protein produced (MFIs) compared with MC3 [2]: better than MC3

Now from value to compound, other results behind:

pKa [1, 5]	pKa ([1]; Table 8, read-out: Exp.pKa)	Diameter (Z. ave, nm) [3, 6] [nm]	Polydispersity Index (PDI) [3, 6]	Encapsulation Efficiency (%) [4, 6] [%]	SMILES	further results
7.71	7.7	–	–	–	CCCCCCCCCCCCCC(=O)O[C@@H]1[C@@H](OC(=O)CCCCCCCCCCCCC)CO[C@@H]1COC(=O)CCCCN(C)C (racemic) [PNI 120]	GFP Protein expression score: Human T cell [2]: Toxic
6.11	6.11	58.2	0.04	97.2	CCCCCCCCC1CC1CCCCCCCC(=O)O[C@@H]1[C@@H](OC(=O)CCCCCCCC2CC2CCCCCCCC)CO[C@@H]1COC(=O)CCN(C)C (mixture of isomers) [PNI 342]	–
6.42	5.97	75.0	0.15	89.4	CCCCCCCCCCCC(=O)O[C@@H]1[C@@H](OC(=O)CCCCCCCCCCC)CO[C@@H]1COC(=O)CCN(C)C (racemic) [PNI 534]	Diameter (Z. ave, nm) [3, 7]: 107.1 nm; Polydispersity Index (PDI) [3, 7]: 0.29; Encapsulation Efficiency (%) [4, 7]: 49.3%
6.79	6.79	67.0	0.11	98.7	CCCCC/C=C\C/C=C\CCCCCCCC(=O)O[C@@H]1[C@@H](OC(=O)CCCCCCC/C=C\C/C=C\CCCCC)CO[C@@H]1COC(=O)CC1CCN(C)C1 (mixture of isomers) [PNI 538]	–
6.46	6.46	73.8	0.06	97.1	CCCCCCCCC1CC1CCCCCCCC(=O)O[C@@H]1[C@@H](OC(=O)CCCCCCCC2CC2CCCCCCCC)CO[C@@H]1COC(=O)C1(C)CCN(C)CC1 (mixture of isomers) [PNI 541]	amount of protein produced (MFIs) compared with MC3 [2]: better than MC3; protein expression (GFP MFI) compared with MC3 ([2]; FIG. 5, CT10, N/P 8, 500 ng mRNA per 125,000 cells, 3 days after activation, 48 h): higher levels of protein expression than MC3; amount of protein produced (MFI) in human T cells compared with MC3 ([2]; summary): better than MC3; Diameter (Z. ave, nm) [3, 7]: 109.4 nm; Polydispersity Index (PDI) [3, 7]: 0.28; Encapsulation Efficiency (%) [4, 7]: 73.5%
4.24	–	–	–	–	CCCCCCCCC1CC1CCCCCCCC(=O)O[C@@H]1[C@@H](OC(=O)CCCCCCCC2CC2CCCCCCCC)CO[C@@H]1COC(=O)C1CCN(C2CC2)CC1 (stereo in doubt) [PNI 576]	–
6.45	–	–	–	–	CCCCCCCCC1CC1CCCCCCCC(=O)O[C@@H]1[C@@H](OC(=O)CCCCCCCC2CC2CCCCCCCC)CO[C@@H]1COC(=O)C1CCN(CC)CC1 (stereo in doubt) [PNI 577]	–
5.87	–	–	–	–	CCCCCCCCC1CC1CCCCCCCC(=O)O[C@@H]1[C@@H](OC(=O)CCCCCCCC2CC2CCCCCCCC)CO[C@@H]1COC(=O)CC1CCCCN1C (stereo in doubt) [PNI 578]	–
6.93	6.93	–	–	–	CCCCCCCCCCCCCC(=O)O[C@@H]1[C@@H](OC(=O)CCCCCCCCCCCCC)CO[C@@H]1COC(=O)CCN(C)C [PNI 344]	–
